In experiment [1] the test system is TPA-induced inflammation in the mouse ear. Kind of experiment: Topical anti-inflammatory activity: TPA-induced inflammation (edema) in the mouse ear. Conditions: for inhibition in vivo at 100 µg/ear: Mus musculus, @ 100 μg, 5-6 h after TPA; for Inhibition of ear edema, IC50: multiple-dose experiment, dose for 50% inhibition of weight gain. It counts as in vivo, mouse (male CD-1). As for the experimental part: The topical anti-inflammatory activity of the compounds is determined by measuring the degree of inhibition of TPA-induced inflammation in the mouse ear, using essentially the procedure of C. Van Arman, Clin. Pharmacol. Ther., 16, 900 (1974). Male CD-1 mice are used at seven to nine weeks of age. 12-O-tetradecanoylphorbol acetate ([…] in 20 μl of acetone) is dispensed onto the dorsum of the left ear of each mouse, and the right ear is left untreated. Ten mice so treated serve as the control group. […]
After five to six hours, the animals are sacrificed by CO2 inhalation, the ears are removed, and 7 mm circular punch biopsies of are taken from each ear and weighed. The difference in biopsy weight between treated and untreated ears is determined, and the degree of anti-inflammatory activity is expressed in terms of the percent inhibition of ear weight increase relative to the control group. In multiple-dose experiments, varying amounts of the compound to be tested are applied along with the TPA and the results are expressed as the ED50, the dose at which a 50% inhibition of weight gain is observed.

Experiment [2] addresses T1, human platelet phospholipase A2 (Homo sapiens, UniProt P14555).
T1 construct: a preparation of human platelet phospholipase A2; from tissue; host or cells: human platelets
T1 sequence (P14555 21-144): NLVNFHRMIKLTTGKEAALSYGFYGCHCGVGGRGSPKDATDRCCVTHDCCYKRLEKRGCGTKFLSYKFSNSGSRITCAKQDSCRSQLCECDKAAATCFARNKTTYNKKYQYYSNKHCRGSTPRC
Kind of experiment: Inhibition of human platelet phospholipase A2 (14C-oleate E. coli substrate). The class given is biochemical. The following applies: for pIC50: pH 7.0, 37°, 60 min incubation, read-out: Inhibition of PLA2, IC50; for inhibition at 50 µM: read-out: Inhibition of PLA2, % Inhibition @ 50 μM; for inhibition at 10 µM: @ 10 μM (values marked *), read-out: Inhibition of PLA2, % Inhibition @ *10 μM. As for the experimental part:
The activity of the compounds of the invention against phospholipase A2 is determined using a preparation of human platelet phospholipase A2 with a specific activity of 180 nmol/min/mg as the enzyme source. Polypropylene 15-ml test tubes are utilized as the reaction vessels. All drug samples are run in duplicate, with "blank" and "control" (no test compound) groups run in triplicate. […] Test compounds are dissolved in DMSO, and diluted to a projected final concentration of either 50 or 10 μM in 550 μl HEPES buffer at pH 7.0. A 1:7 dilution of human platelet PLA2 in HEPES buffer (5 μl) is added to each test tube, followed by gentle vortexing for 3 seconds. The reaction tubes containing drug, buffer, and enzyme are preincubated for 15 min at 37°, followed by the addition of 25 μl of ^14 C-oleate E. coli substrate. Details regarding this substrate may be found in a publication by S. Ghosh and R. Franson, Biochem. Cell. Biol., 70, 43 (1992), and references therein.
The tubes are immediately vortexed at moderate speed for 3 sec, followed by a 60 min incubation at 37° in a shaking water bath. The reaction is stopped by the addition of 3 ml of a 1:2 chloroform-methanol mixture. Additional water (1.5 ml) and chloroform (1.0 ml) are added, followed by vortexing. The lower phase is removed with a polypropylene transfer pipette, and transferred to a 13×100 mm polypropylene test tube. The organic solvent is evaporated with a stream of nitrogen, the residue is redissolved in 30 μl of a 9:1 chloroform-methanol mixture, and the solution is spotted on a channeled polyester-backed silica gel TLC plate, such as those available under the trade name PE SIL G available from Whatman Inc, Clifton, N.J.
The plate is developed with an 80:20:1 mixture of petroleum ether-diethyl ether-acetic acid. […] The plate is scored above the origin, cut along the score with scissors, and the reactant (origin) and product portions of each channel are put into separate scintillation vials. To each vial is added a scintillation cocktail (15 ml), preferably that sold under the trademark ECOLUME by ICN Biomedicals, Irvine Calif. The vials are shaken vigorously for 5 sec, and the radioactive ^14 C in each vial is measured with a scintillation counter, which provides the counts-per-minute (cpm) for each sample. The obtained cpm values are corrected for the "blank" values.
The percentage of phospholipid hydrolyzed is calculated by the formula:
Phospholipid converted=100×cpm products / (cpm products+cpm
The inhibition of phospholipase A2 by the test compounds is expressed as a percent inhibition relative to the control group:
% Inhibition=[…]

pIC50: −log10 of the molar value.

The inhibition in vivo is the percentage by which the read-out fell short of the control. Low values mean little suppression, high ones strong suppression. As usually defined, the pIC50 is the IC50 on a negative log10 scale, so that one unit is a factor of ten. Usually inhibition stands for the drop in the measured response relative to a control, in per cent. In experiment [1], `O=C1C=C(c2ccc(OCCCCCCOc3ccc4ccccc4c3)cc2)C(O)O1` (stereo not shown) [Example 13, 5-Hydroxy-4-[4-(6-(2-naphthyloxy)hexyloxy)phenyl]-2(5H)furanone] had an inhibition in vivo at 100 µg/ear of 0%. Besides, in experiment [2], the pIC50 was 4.66 and the inhibition at 50 µM amounted to 73%.

As to `CC1=C(C/C=C(\C)CSc2ccc(C3=CC(=O)OC3O)cc2)C(C)(C)CCC1` (stereo not shown) [Example 18, (E)-5-Hydroxy-4-(4-(2-methyl-4-(2,6,6-trimethyl-1-cyclohexen-1-yl)-2-butenylthio)phenyl)-2(5H)-furanone], in experiment [1], the inhibition in vivo at 100 µg/ear was determined as 70% and the “Inhibition of ear edema, IC50” value worked out at 28 µg. Moreover, the inhibition at 50 µM in experiment [2] came to 75%.

With `CC1=C(C/C=C(\C)COc2ccc(C3=CC(=O)OC3O)cc2)C(C)(C)CCC1` (stereo not shown) [Example 16, (E)-5-Hydroxy-4-(4-(2-methyl-4-(2,6,6-trimethyl-1-cyclohexen-1-yl)-2-butenyloxy)phenyl)-2(5H)-furanone], in experiment [1], the inhibition in vivo at 100 µg/ear amounted to 43% and the “Inhibition of ear edema, IC50” value stood at 106 µg. Further, in experiment [2], the pIC50 was 5.05 and the inhibition at 50 µM stood at 100%.

Turning to `O=C1C=C(c2ccc(/C=C/c3ccccc3)cc2)C(O)O1` (single isomer, unassigned) [Example 34, (E)-5-Hydroxy-4-(4-(2-phenylethenyl)phenyl)-2(5H)-furanone], the inhibition in vivo at 100 µg/ear in experiment [1] was found to be 33%. In experiment [2], the pIC50 was 4.52 and the inhibition at 50 µM amounted to 91%.

For the compound `C=CC(CCCCC)Oc1ccc(C2=CC(=O)OC2O)cc1` (stereo not shown) [Example 37, 5-Hydroxy-4-(4-((1-ethenylhexyl)oxy)phenyl)-2(5H)-furanone], the inhibition in vivo at 100 µg/ear in experiment [1] amounted to 34%. Besides, in experiment [2], the pIC50 was 4.70 and the inhibition at 50 µM was found to be 93%.

As for `CCCCCCCCOc1ccc(C2=CC(=O)OC2O)cc1` (stereo not shown) [Example 1, 5-Hydroxy-4-(4-octyloxyphenyl)-2(5H)furanone], in experiment [1], the inhibition in vivo at 100 µg/ear came to 56% and the “Inhibition of ear edema, IC50” value was 300 µg. In experiment [2], the pIC50 is 4.85 and the inhibition at 50 µM amounted to 91%.

`CCCCC/C=C/Cc1cc(C2=CC(=O)OC2O)ccc1O` (stereo not shown) [Example 38, (E)-5-Hydroxy-4-(4-hydroxy-3-(2-octenyl)phenyl)-2(5H)-furanone]: in experiment [1], the inhibition in vivo at 100 µg/ear amounted to 78% and the “Inhibition of ear edema, IC50” value stood at 27 µg. Also, the inhibition at 50 µM in experiment [2] was 85%.

Compound `O=C1C=C(c2cccc(Oc3ccccc3)c2)C(O)O1` (stereo not shown) [Example 43, 5-Hydroxy-4-(3-phenoxyphenyl)-2(5H)-furanone] returned an inhibition in vivo at 100 µg/ear in experiment [1] of 52%. Further, the inhibition at 50 µM in experiment [2] came out at 30%.

Turning to `O=C1C=C(c2ccc(/C=C/CCc3ccccc3)cc2)C(O)O1` (stereo not shown) [Example 36, (E)-5-Hydroxy-4-(4-(4-phenyl-1-butenyl)phenyl)-2(5H)-furanone], the inhibition in vivo at 100 µg/ear in experiment [1] is 37%. In addition, in experiment [2], the pIC50 was 4.62 and the inhibition at 50 µM is 84%.

Take `CCCCCCCCSc1ccc(C2=CC(=O)OC2O)cc1` (stereo not shown) [Example 19, 5-Hydroxy-4-(4-(octylthio)phenyl)-2(5H)furanone]: the inhibition in vivo at 100 µg/ear in experiment [1] came out at 20%. In addition, in experiment [2], the pIC50 was 5.30 and the inhibition at 50 µM is 98%.

For `O=C1C=C(c2ccccc2)C(O)O1` (stereo not shown) [Example 42, 5-Hydroxy-4-phenyl-2(5H)-furanone], the inhibition in vivo at 100 µg/ear in experiment [1] is 45%. Further, the inhibition at 50 µM in experiment [2] worked out at 9%.

The compound `CCCCCC/C=C/c1ccc(C2=CC(=O)OC2O)cc1` (stereo not shown) [Example 35, (E)-5-Hydroxy-4-(4-(1-octenyl)phenyl)-2(5H)-furanone] came in with an inhibition in vivo at 100 µg/ear in experiment [1] of 30%. In addition, in experiment [2], the pIC50 was 5.30 and the inhibition at 50 µM was 100%.

On to `CC1=C(C/C=C(\C)COc2cccc(C3=CC(=O)OC3O)c2)C(C)(C)CCC1` (stereo not shown) [Example 17, (E)-5-Hydroxy-4-(3-(2-methyl-4-(2,6,6-trimethyl-1-cyclohexen-1-yl)-2-butenyloxy)phenyl)-2(5H)-furanone], for which, in experiment [1], the inhibition in vivo at 100 µg/ear was 51% and the “Inhibition of ear edema, IC50” value stood at 87 µg. Besides, in experiment [2], the pIC50 is 5.10 and the inhibition at 50 µM was 100%.

In experiment [1], `CC1=C(CCCC/C=C(\C)COc2ccc(C3=CC(=O)OC3O)cc2)C(C)(C)CCC1` (stereo not shown) [Example 14, (E)-5-Hydroxy-4-(4-(2-methyl-7-(2,6,6-trimethyl-1-cyclohexen-1-yl)-2-heptenyloxy)phenyl)-2(5H)-furanone] came in with an inhibition in vivo at 100 µg/ear of 4%. Further, the inhibition at 50 µM in experiment [2] was found to be 87%.

`CCCCCCCCOc1ccc(SC2=CC(=O)OC2O)cc1` (stereo not shown) [Example 64, 5-Hydroxy-4-(4-(octyloxy)phenylthio)-2(5H)-furanone] gave an inhibition in vivo at 100 µg/ear in experiment [1] of 48%. Also, in experiment [2], the pIC50 is 5.30 and the inhibition at 50 µM is 96%.

The compound `O=C1C=C(c2ccc(OCCOc3ccc4ccccc4c3)cc2)C(O)O1` (stereo not shown) [Example 12, 5-Hydroxy-4-[4-(2-(2-naphthyloxy)ethoxy)phenyl]-2(5H)furanone] returned an inhibition in vivo at 100 µg/ear in experiment [1] of 45%. Also, in experiment [2], the inhibition at 50 µM was found to be 47%.

In experiment [1], `C=CCCCCCCCCC(=O)c1ccc(C2=CC(=O)OC2O)cc1` (stereo not shown) [Example 28, 5-Hydroxy-4-(4-(1-oxoundec-10-en-1-yl)phenyl)-2(5H)-furanone] gave an inhibition in vivo at 100 µg/ear of 0%. In experiment [2], the pIC50 is 5.05 and the inhibition at 50 µM was 86%.

Take `CC(C)=CCC/C(C)=C/CSc1ccc(C2=CC(=O)OC2O)cc1` (stereo not shown) [Example 23, (E)-5-Hydroxy-4-(4-(3,7-dimethyl-2,6-octadienyl)thio)phenyl-2(5H)furanone]: the inhibition in vivo at 100 µg/ear in experiment [1] turned out to be 56%. In addition, in experiment [2], the pIC50 is 5.10 and the inhibition at 50 µM turned out to be 78%.

Take `CC1=C(C/C=C(\C)COc2ccc(SC3=CC(=O)OC3O)cc2)C(C)(C)CCC1` (stereo not shown) [Example 67, (E)-5-Hydroxy-4-(4-(2-methyl-4-(2,6,6-trimethyl-1-cyclohexen-1-yl)-2-butenyloxy)phenylthio)-2(5H)-furanone]: in experiment [2], the negative-log IC50 (pIC50) is 6.30 and the inhibition at 50 µM was found to be 98%.

Consider `CCCCCCCCN(C(C)=O)c1ccc(C2=CC(=O)OC2O)cc1` (stereo not shown) [Example 25, 5-Hydroxy-4-(4-(N-acetyl-N-octylamino)phenyl)-2(5H)furanone], for which, in experiment [2], the inhibition at 10 µM came to 40%.

Take `CCCCCCCCOc1cccc(C2=CC(=O)OC2O)c1` (stereo not shown) [Example 3, 5-Hydroxy-4-(3-octyloxyphenyl)-2(5H)furanone]: the inhibition at 50 µM in experiment [2] was determined as 39%.

As to `O=C1C=C(c2ccc(C#Cc3ccc(C(F)(F)F)cc3)cc2)C(O)O1` (stereo not shown) [Example 58, 5-Hydroxy-4-(4-(2-(4-(trifluoromethyl)phenyl)ethynyl)phenyl)-2(5H)-furanone], the inhibition at 10 µM in experiment [2] is 24%.

In the case of `O=C1C=C(c2ccc(OCCCc3ccccc3)cc2)C(O)O1` (stereo not shown) [Example 10, 5-Hydroxy-4-[4-(3-phenylpropyloxy)phenyl]-2(5H)furanone], in experiment [2], the inhibition at 50 µM is 17%.

Take `O=C1C=C(c2ccc(C#Cc3cc4ccccc4s3)cc2)C(O)O1` (stereo not shown) [Example 62]: the inhibition at 10 µM in experiment [2] stood at 33%.

On to `O=C1C=C(c2ccc(C#Cc3cccc([N+](=O)[O-])c3)cc2)C(O)O1` (stereo not shown) [Example 59, 5-Hydroxy-4-(4-(2-(3-nitrophenyl)ethynyl)phenyl)-2(5H)-furanone], for which the inhibition at 10 µM in experiment [2] is 6%.

For the origin of these results see patent US5464865A, “4-aryl- and 4-arylthio-5-hydroxy-2(5H)-furanones as inhibitors of phospholipase A2” (Ortho Pharmaceutical Corporation, priority 1993, dated 1995).
